Data published in patent US11179412B2, “Methods of treating conditions involving elevated inflammatory response” (University of Pittsburgh—Of the Commonwealth System of …, priority 2017, dated 2021).

Columns and labels:
IFNβ mRNA in THP1 cells = experiment: IFNβ mRNA Q-PCR, THP1 cells; format: cell-based, human; conditions: STING ligands 10 μg/ml, inhibitor 10 μM, 16 hours
Procedure: (§1) Total RNA was extracted using QIAGEN RNeasy Plus Kit according to the manufacturer's instructions. First-strand cDNA was synthesized from 1 μg of RNA using the iScript cDNA Synthesis kit (#1708890, Bio-Rad). Briefly, 20 μl reactions were prepared by combining 4 μl iScript Select reaction mix, 2 μl gene-specific enhancer solution, 1 μl reverse transcriptase, 1 μl gene-specific assay pool (20×, 2 μM), and 12 μl RNA diluted in RNase-free water. Quantitative real-time PCR was carried out using synthesized cDNA, primers, and SsoFast EvaGreen Supermix (#172-5204, Bio-Rad). The expression of target genes was calculated using the ddCt method relative to the expression of a house-keeping gene, β-actin. Data shown are the relative quantity (RQ), with RQ of the control cells set to one.

THP1 cells = experiment: Cell viability assay (CCK-8), THP1; format: cell-based, human; conditions: 3′3′-cGAMP 10 μg/ml, ALK inhibitor 10 μM, 16 hours
Procedure: Cells were seeded into 96-well plates and incubated with the indicated treatments. Subsequently, 100 μl fresh medium was added to cells containing 10 μl Cell Counting Kit-8 (CCK-8) solutions (Dojindo Laboratories) and incubated for 1 h (37° C., 5% CO2). Absorbance at 450 nm was measured using a microplate reader (Tecan).

[1] = molecular target: T1, interaction between ALK and EGFR (Homo sapiens, UniProt P00533+Q9UM73); experiment: IP analysis of the interaction between ALK and EGFR, THP1; format: cell-based; conditions: 3′3′-cGAMP or c-di-AMP 10 μg/ml, 16 hours, 10 μM
T1 construct: endogenous in cells; host or cells: THP1 cells
Procedure: For immunoprecipitation, cells were lysed at 4° C. in ice-cold modified radioimmunoprecipitation lysis buffer (#9806, Cell Signaling Technology) and cell lysates were cleared by centrifugation (12,000 g, 10 min). Concentrations of proteins in the supernatant were determined by bicinchoninic acid assay. Prior to immunoprecipitation, samples containing equal amounts of proteins were pre-cleared with Protein A/G agarose/sepharose beads (#20423, Thermo Fisher Scientific Inc.) (4° C., 3 h) and subsequently incubated with various irrelevant IgG or anti-ALK (#ab190934, Abcam) or anti-EGFR antibodies (#2232S, Cell Signaling Technology) in the presence of Protein A/G agarose/sepharose beads overnight at 4° C. with gentle shaking. Following incubation, agarose/sepharose beads were washed extensively with PBS and proteins were eluted by boiling in 2× sodium dodecyl sulfate (SDS) sample buffer before SDS-PAGE electrophoresis.

[2] = test system: STING signaling (TBK1, IRF3, p65, ALK, EGFR, AKT phosphorylation) in THP1 cells; experiment: Western blot of STING pathway protein phosphorylation, THP1; format: cell-based, human; conditions: 10 μM
Procedure: (§2) For immunoblotting, cells were lysed in Cell Lysis Buffer (#9803, Cell Signaling Technology) with protease inhibitor cocktail (Promega), phosphatase inhibitor cocktail (Sigma), and 1 mM Na3VO4 (70). Cleared lysates were resolved by SDS-PAGE (#3450124, Bio-Rad) and then transferred onto PVDF membranes (#1704273, Bio-Rad). The membranes were blocked with Tris-buffered saline Tween 20 (TBST) containing 5% skim milk for 1 h at room temperature and then incubated with the indicated primary antibodies (1:1000-1:5000) overnight at 4° C. After being washed with TBST, the membranes were incubated with an HRP-linked anti-mouse IgG secondary antibody (#7076, Cell Signaling Technology) or HRP-linked anti-rabbit IgG secondary antibody (#7074, Cell Signaling Technology) for 1 h at room temperature. The membranes were washed three times in TBST and then visualized and analyzed with a ChemiDoc Touch Imaging System (#1708370, Bio-Rad). The intensities of bands were analyzed with Image Lab software.

IFNβ mRNA in iBMDMs = experiment: IFNβ mRNA Q-PCR, iBMDMs; format: cell-based, mouse; conditions: STING ligands 10 μg/ml, inhibitor 10 μM, 16 hours
Procedure: as §1

[3] = test system: STING signaling (TBK1, IRF3, p65 phosphorylation) in J774A.1 cells; experiment: Western blot of STING pathway protein phosphorylation, J774A.1; format: cell-based, mouse; conditions: 10 μM
Procedure: as §2

[4] = test system: STING activation (IFNβ release) in RAW264.7 cells; experiment: IFNβ release ELISA, RAW264.7 cells; format: cell-based, mouse; conditions: STING ligands 10 μg/ml, inhibitor 10 μM, 16 hours
Procedure: Macrophages or monocytes were treated with 3′3′-cGAMP (10 μg/ml, Invitrogen) for 16 hours in the absence or presence of one compound (10 μM) from the Target-selective Inhibitory Library (#L3500, Selleck Chemicals). Commercially available enzyme-linked immunosorbent assay (ELISA) kits were used to measure the concentrations of mouse IFNβ (Thermo Fisher Scientific) or human IFNβ (Thermo Fisher Scientific) in culture medium according to the manufacturer's instructions.

[5] = 3′3′-cGAMP 10 μg/ml, three to 16 hours

T1 sequence (Q9UM73 19-1620): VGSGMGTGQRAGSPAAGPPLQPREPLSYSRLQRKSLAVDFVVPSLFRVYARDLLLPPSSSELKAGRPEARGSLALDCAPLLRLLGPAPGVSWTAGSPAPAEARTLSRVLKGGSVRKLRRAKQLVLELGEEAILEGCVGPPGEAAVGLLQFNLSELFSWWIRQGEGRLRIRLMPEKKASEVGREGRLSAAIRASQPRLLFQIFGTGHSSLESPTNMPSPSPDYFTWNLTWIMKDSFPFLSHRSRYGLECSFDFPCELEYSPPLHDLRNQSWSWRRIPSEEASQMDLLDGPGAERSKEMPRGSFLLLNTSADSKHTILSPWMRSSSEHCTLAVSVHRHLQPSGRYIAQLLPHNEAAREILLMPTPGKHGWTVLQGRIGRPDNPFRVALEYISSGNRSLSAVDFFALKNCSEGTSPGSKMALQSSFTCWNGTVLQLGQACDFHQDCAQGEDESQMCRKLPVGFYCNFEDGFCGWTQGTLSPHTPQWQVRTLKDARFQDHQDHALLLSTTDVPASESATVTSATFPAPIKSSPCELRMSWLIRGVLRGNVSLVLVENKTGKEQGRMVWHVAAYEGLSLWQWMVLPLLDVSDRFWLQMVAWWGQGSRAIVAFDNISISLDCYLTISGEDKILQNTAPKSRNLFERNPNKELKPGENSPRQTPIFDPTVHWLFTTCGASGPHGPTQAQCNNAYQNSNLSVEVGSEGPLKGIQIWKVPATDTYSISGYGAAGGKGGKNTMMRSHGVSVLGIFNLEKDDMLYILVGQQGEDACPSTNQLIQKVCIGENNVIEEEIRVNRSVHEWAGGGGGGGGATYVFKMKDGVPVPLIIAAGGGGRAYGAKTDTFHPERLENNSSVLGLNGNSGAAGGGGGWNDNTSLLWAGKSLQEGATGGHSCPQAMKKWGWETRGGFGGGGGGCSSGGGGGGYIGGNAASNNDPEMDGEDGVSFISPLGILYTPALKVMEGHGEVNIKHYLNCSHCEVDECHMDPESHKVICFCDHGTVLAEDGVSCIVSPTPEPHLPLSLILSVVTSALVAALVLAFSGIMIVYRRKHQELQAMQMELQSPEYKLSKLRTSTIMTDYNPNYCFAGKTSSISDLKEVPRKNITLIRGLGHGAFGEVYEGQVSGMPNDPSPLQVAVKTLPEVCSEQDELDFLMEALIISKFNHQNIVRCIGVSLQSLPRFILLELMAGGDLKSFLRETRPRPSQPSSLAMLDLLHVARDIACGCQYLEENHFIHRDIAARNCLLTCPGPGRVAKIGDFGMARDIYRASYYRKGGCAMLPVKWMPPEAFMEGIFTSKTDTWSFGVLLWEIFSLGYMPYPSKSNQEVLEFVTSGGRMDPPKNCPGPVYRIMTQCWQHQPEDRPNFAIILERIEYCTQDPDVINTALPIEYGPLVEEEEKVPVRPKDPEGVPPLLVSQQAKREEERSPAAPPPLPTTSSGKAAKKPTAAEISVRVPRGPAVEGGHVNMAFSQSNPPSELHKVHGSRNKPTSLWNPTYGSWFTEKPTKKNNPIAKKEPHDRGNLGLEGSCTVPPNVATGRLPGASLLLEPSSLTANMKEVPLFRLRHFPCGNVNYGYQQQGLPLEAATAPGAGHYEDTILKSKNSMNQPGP
T1 sequence (P00533 25-1210): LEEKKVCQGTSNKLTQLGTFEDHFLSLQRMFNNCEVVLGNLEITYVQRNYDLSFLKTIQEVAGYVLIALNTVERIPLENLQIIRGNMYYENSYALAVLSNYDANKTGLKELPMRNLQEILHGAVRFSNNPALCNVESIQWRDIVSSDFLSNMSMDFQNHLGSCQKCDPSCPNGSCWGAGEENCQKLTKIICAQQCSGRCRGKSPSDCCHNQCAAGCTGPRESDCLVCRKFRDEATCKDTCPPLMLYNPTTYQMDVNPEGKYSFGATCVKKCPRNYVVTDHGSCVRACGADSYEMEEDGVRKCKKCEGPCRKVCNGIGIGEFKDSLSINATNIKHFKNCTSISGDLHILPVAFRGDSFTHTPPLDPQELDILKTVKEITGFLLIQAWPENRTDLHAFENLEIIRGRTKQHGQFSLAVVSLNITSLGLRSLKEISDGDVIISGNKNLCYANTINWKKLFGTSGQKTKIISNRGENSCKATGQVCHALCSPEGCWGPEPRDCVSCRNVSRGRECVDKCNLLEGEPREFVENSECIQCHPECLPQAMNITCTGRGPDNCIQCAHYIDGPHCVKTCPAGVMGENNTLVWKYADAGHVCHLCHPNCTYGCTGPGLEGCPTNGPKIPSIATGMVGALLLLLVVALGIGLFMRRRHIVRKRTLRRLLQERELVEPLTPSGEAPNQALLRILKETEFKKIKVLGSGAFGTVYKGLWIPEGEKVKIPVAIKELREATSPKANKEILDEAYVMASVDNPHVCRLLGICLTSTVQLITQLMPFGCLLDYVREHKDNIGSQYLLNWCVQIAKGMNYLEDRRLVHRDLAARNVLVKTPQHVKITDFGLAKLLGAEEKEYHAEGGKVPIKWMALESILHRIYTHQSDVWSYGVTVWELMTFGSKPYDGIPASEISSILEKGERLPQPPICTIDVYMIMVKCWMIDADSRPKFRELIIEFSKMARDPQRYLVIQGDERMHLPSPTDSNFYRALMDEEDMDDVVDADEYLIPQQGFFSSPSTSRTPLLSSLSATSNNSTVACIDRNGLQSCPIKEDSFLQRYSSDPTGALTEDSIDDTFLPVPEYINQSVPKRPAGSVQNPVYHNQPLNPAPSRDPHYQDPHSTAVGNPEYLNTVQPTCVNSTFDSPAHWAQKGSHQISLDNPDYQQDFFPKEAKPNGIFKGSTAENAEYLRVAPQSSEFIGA

SMILES: Cc1cc(Nc2ncc(Cl)c(Nc3ccccc3S(=O)(=O)C(C)C)n2)c(OC(C)C)cc1C1CCNCC1 [LDK378, 5-chloro-N^2-(2-isopropoxy-5-methyl-4-(piperidin-4-yl)phenyl)-N^4-[2-(propane-2-sulfonyl)-phenyl]-pyrimidine-2,4-diamine]
- STING ligand-induced IFNβ mRNA expression (IFNβ mRNA in THP1 cells): attenuation
- cell viability (THP1 cells): did not affect cell viability
- interaction between ALK and EGFR [1]: reduced
- 3′3′-cGAMP-induced p-TBK1 [2, 5]: time-dependently reduced
- STING ligand-induced phosphorylation of TBK1, IRF3, and p65 ([2]; 3′3′-cGAMP or c-di-AMP 10 μg/ml, 16 hours): diminished
- 3′3′-cGAMP-, c-di-AMP-, and DMXAA-induced p-IRF3 and p-p65 ([2]; ligand 10 μg/ml): inhibited
- c-di-AMP- or DMXAA-induced p-TBK1 ([2]; ligand 10 μg/ml, 16 hours): inhibited
- 3′3′-cGAMP- or c-di-AMP-induced phosphorylation of ALK, EGFR, and AKT ([2]; ligand 10 μg/ml, 16 hours): attenuated
- STING ligand-induced IFNβ mRNA expression (IFNβ mRNA in iBMDMs): attenuation
- 3′3′-cGAMP-induced p-TBK1 [3, 5]: time-dependently reduced
- 3′3′-cGAMP-, c-di-AMP-, and DMXAA-induced p-IRF3 and p-p65 ([3]; ligand 10 μg/ml): inhibited
- c-di-AMP- or DMXAA-induced p-TBK1 ([3]; ligand 10 μg/ml, 16 hours): inhibited
- IFNβ release induced by STING ligands [4]: inhibited
